{
  "source": "patent EP0611765A1",
  "about": "“2-(Imidazol-1-yl)-3-heteroarylpropylidene-aminoxyalkanoic acid derivatives” (PHARMACIA S.p.A., priority 1993, dated 1994)",
  "key": {"[1]": {"target": "T1, TxA₂ Synthase (Rattus norvegicus, UniProt P49430)", "T1 construct": "Blood was withdrawn from the abdominal aorta of the animals under light ether anesthesia; from tissue; host or cells: rat whole blood (clotting; platelets)", "T1 sequence (P49430 1-533)": "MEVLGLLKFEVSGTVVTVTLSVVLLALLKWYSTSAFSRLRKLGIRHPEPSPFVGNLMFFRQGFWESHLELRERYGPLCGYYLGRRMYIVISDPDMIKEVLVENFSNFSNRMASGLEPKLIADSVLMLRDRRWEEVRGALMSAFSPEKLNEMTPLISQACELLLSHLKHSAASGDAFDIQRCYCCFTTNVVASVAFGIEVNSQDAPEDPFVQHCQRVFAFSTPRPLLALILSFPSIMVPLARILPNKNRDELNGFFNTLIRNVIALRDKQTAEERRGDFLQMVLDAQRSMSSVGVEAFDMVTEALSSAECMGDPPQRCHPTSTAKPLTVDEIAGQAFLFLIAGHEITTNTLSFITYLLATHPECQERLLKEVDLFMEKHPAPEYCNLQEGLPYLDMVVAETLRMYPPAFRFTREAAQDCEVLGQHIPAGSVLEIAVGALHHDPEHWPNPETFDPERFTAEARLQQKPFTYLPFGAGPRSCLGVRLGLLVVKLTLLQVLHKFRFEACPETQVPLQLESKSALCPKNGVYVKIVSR", "assay": "In vitro effects on TxB₂ production in rat whole blood during clotting (RIA)", "assay_type": "cell-based", "conditions": "result in words", "method": "The compounds of formula (I) were for example tested for their ability to inhibit TxA₂ Synthase activity (as reflected by TxB₂ generated in whole blood during clotting or in isolated glomeruli) in vitro in the rat.\nThe in vitro experiments were carried out as follows: The effect of the compounds on TxA₂ synthesis was evaluated in serum.\nBlood was withdrawn from the abdominal aorta of the animals under light ether anesthesia.\nSamples were then allowed to clot for 1 h at 37°C, centrifuged at 3000 rpm for 10 min, serum collected and stored at -20°C until assayed. TxB₂ levels were determined by RIA according to previously described procedures [Patrono et al. - Thromb."}, "[2]": {"target": "T2, TxA₂ synthase (Homo sapiens, UniProt P24557)", "T2 sequence (P24557 1-533)": "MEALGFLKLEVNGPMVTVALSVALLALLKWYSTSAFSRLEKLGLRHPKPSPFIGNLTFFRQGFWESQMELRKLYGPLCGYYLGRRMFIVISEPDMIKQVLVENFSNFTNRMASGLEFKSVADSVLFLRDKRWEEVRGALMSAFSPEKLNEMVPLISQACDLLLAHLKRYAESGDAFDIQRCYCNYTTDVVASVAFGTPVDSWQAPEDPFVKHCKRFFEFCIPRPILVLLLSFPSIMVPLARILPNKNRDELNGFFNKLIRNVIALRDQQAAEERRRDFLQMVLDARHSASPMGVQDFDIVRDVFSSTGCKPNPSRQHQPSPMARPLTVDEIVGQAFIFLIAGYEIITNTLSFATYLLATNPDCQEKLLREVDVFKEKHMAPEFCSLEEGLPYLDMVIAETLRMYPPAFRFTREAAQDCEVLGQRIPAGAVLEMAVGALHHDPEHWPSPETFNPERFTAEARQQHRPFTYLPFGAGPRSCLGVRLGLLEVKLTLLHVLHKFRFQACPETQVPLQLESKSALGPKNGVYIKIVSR", "conditions": "statement on the known compound; cited from earlier work"}},
  "data": [
    {"molecule": "O=C(O)CCCCO/N=C(\\C1CCCCC1)C(Cc1cnccn1)n1ccnc1", "note": "(racemic) [FCE 27751, (±)-(E)-5-[2-pyrazinylmethyl-2-(imidazol-1-yl)-1-cyclohexylethylidene]aminoxypentanoic acid]", "values": [
      {"measurement": "inhibitory activity on TxA₂ synthesis", "setting": "[1]", "value": "marked inhibitory activity"}
    ]},
    {"molecule": "O=C(O)COc1ccc(CCNS(=O)(=O)c2ccccc2)cc1", "note": "[BM 13177, Sulotroban]", "values": [
      {"measurement": "TxA₂ synthase inhibitory activity", "setting": "[2]", "value": "devoid of TxA₂ synthase inhibitory activity"}
    ]}
  ]
}
